Patent US20080058400A1, “Skin external preparation” (FUJIFILM CORPORATION, priority 2006, published 2008)

Tests used:
[1] = system: Human normal epidermal keratinocytes; assay: Amino acid deficient medium culturing test; type: cell-based; conditions: for growth of human epidermal keratinocytes in deficient medium: medium deficient in the named amino acid; for Relative ratio: number of cells, named amino acid reduced to 10% by weight of general MCDB 153 medium concentration, 5 days culture, non-deficient medium = 100
Method: Human normal epidermal keratinocytes (Sanko Junyaku) were used as the cells. […] The cells were pre-cultured at 37° C., under an atmosphere of 5% (v/v) CO2 until they became a semi-confluent state.
The keratinocytes cultured under a growing state in a T 75 flask were used. After removing the medium by suction, 5 ml of 0.25% trypsin solution was added thereto and incubated at room temperature for 10 minutes. A 10 ml portion of the medium was added thereto, and the cells were peeled off and recovered by pipetting. The thus obtained cell suspension was centrifuged at 1,000 rpm for 5 minutes, and the supernatant was discarded. The thus obtained cell pellet was suspended in 10 ml of the medium and centrifuged at 1,000 rpm for 5 minutes, and the supernatant was discarded. The thus obtained cell pellet was again suspended in 10 ml of the medium and centrifuged at 1,000 rpm for 5 minutes, and the supernatant was discarded. The thus obtained cell pellet was suspended in 2 ml of the medium, and the number of cells was counted.
As growth factors, 50 mg/l of BPE (bovine pituitary gland extract), 5 mg/l of insulin, 0.1 mM ethanolamine, 0.1 mM phosphoethanolamine and 0.00001 mg EGF ([…]) were added thereto. The aforementioned cells were mixed with 1 ml of this medium at a density of 3×10^4 cells, inoculated onto a 24 well plate and cultured at 37° C. for 5 days under an atmosphere of 5% (v/v) CO2, and then the number of cells was counted.

[2] = system: abdominal skin of male hairless mice; conditions: for Permeability (%) of the permeated whole amino acids: male, hairless, mouse, 24 h, 1 % by weight
Method: The skin sample was attached to a Keshany-Chien type diffusion cell. A 1 ml portion of each test liquid (described later) was added to the donor phase, and its upper side was sealed with Para Film. A 0.01 mol/l phosphate buffered saline (Wako Pure Chemical Industries) was added to the receptor phase, stirred and incubated at 32° C., and amounts of amino acids were determined by an HPLC method 24 hours later to calculate permeation ratio.
Using an HPLC amino acid analysis system of Shimadzu Corp. (Prominence), the determination was carried out by a post column fluorescence detection method which uses OPA (ortho-phthalaldehyde) as a reaction reagent.

Row | Permeability of each amino acid [2] [%] | Permeability (%) of the permeated whole amino acids [2] [%] | Structure (SMILES) | growth of human epidermal keratinocytes in deficient medium [1] | Relative ratio [1]
1 | 15.1 | – | N[C@@H](Cc1ccccc1)C(=O)O [Phenylalanine] | growth was suppressed | 4
2 | 14.3 | – | NCC(=O)O [Glycine] | growth was suppressed | 9
3 | 14.2 | – | NC(=O)C[C@H](N)C(=O)O [Asparagine] | – | 13
4 | – | – | N[C@@H](Cc1ccc(O)cc1)C(=O)O [Tyrosine] | growth was suppressed | –
5 | 7.9 | – | O=C(O)[C@@H]1CCCN1 [Proline] | – | 13
6 | 8.4 | – | C[C@H](N)C(=O)O [Alanine] | – | 14
7 | – | – | N[C@@H](CCC(=O)O)C(=O)O [Glutamic acid] | – | 15
8 | 20.8 | – | CC[C@H](C)[C@H](N)C(=O)O [Isoleucine] | growth was suppressed | 7
9 | – | 9.6 | OC[C@H]1OC(O)[C@H](O)[C@@H](O)[C@@H]1O (stereo partly shown) [Glucose] | – | –
10 | 10.2 | – | NC(=O)CC[C@H](N)C(=O)O [Glutamine] | – | 16
11 | 21.3 | – | CC(C)C[C@H](N)C(=O)O [Leucine] | growth was suppressed | 6
12 | 14.7 | – | N[C@@H](CS)C(=O)O [Cysteine] | growth was suppressed | 9
13 | – | 7.2 | OC[C@H]1O[C@H](O[C@H]2O[C@H](CO)[C@@H](O)[C@H](O)[C@H]2O)[C@H](O)[C@@H](O)[C@@H]1O [Trehalose] | – | –
14 | 15.2 | – | N[C@@H](CO)C(=O)O [Serine] | growth was suppressed | 6
15 | 15.2 | – | N[C@@H](Cc1c[nH]cn1)C(=O)O [Histidine] | growth was suppressed | 7
16 | 19.3 | – | C[C@@H](O)[C@H](N)C(=O)O [Threonine] | growth was suppressed | 8
17 | 7.4 | – | CSCC[C@H](N)C(=O)O [Methionine] | – | 12
18 | 19.1 | – | N[C@@H](CC(=O)O)C(=O)O [Aspartic acid] | growth was suppressed | 6
19 | 14.9 | – | CC(C)[C@H](N)C(=O)O [Valine] | growth was suppressed | 9

Row | Structure (SMILES) | Permeability of each amino acid [2] [%] | Permeability (%) of the permeated whole amino acids [2] [%] | growth of human epidermal keratinocytes in deficient medium [1] | Relative ratio [1]
20 | N=C(N)NCCC[C@H](N)C(=O)O [Arginine] | 18.1 | – | growth was suppressed | 8
21 | NCCCC[C@H](N)C(=O)O [Lysine] | 19.6 | – | growth was suppressed | 9
22 | N[C@@H](Cc1c[nH]c2ccccc12)C(=O)O [Tryptophan] | 3.6 | – | – | 15
